Assay results from BindingDB's records for doi:10.1021/jm960799i (Dupont Pharmaceuticals, 1997).
Structures can show the parent of a compound that is named as a salt.

target: Integrin alpha-IIb/beta-3 (Homo sapiens, UniProt P08514+P05106); assay: In vitro inhibition of ADP-induced platelet aggregation in human platelet rich plasma (hPRP)
Sequence (P05106 27-788 limits assumed): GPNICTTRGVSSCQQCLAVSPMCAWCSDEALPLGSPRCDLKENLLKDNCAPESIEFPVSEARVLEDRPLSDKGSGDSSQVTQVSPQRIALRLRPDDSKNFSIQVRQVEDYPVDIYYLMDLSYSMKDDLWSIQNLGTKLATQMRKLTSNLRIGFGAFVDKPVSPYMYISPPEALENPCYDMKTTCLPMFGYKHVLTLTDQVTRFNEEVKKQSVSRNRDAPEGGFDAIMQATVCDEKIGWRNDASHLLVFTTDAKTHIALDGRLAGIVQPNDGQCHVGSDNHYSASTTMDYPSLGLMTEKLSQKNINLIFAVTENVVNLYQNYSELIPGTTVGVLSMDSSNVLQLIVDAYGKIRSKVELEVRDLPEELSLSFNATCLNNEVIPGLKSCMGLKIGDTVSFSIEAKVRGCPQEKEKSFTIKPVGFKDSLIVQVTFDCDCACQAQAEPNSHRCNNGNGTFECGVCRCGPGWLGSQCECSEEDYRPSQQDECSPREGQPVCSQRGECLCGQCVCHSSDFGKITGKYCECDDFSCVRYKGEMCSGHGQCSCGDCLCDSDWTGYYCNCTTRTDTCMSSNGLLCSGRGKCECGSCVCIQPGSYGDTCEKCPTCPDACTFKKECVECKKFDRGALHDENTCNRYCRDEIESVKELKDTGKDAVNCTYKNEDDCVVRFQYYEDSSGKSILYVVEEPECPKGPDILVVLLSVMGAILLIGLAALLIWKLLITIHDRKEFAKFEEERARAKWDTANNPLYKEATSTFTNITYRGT
Sequence (P08514 32-887 limits assumed): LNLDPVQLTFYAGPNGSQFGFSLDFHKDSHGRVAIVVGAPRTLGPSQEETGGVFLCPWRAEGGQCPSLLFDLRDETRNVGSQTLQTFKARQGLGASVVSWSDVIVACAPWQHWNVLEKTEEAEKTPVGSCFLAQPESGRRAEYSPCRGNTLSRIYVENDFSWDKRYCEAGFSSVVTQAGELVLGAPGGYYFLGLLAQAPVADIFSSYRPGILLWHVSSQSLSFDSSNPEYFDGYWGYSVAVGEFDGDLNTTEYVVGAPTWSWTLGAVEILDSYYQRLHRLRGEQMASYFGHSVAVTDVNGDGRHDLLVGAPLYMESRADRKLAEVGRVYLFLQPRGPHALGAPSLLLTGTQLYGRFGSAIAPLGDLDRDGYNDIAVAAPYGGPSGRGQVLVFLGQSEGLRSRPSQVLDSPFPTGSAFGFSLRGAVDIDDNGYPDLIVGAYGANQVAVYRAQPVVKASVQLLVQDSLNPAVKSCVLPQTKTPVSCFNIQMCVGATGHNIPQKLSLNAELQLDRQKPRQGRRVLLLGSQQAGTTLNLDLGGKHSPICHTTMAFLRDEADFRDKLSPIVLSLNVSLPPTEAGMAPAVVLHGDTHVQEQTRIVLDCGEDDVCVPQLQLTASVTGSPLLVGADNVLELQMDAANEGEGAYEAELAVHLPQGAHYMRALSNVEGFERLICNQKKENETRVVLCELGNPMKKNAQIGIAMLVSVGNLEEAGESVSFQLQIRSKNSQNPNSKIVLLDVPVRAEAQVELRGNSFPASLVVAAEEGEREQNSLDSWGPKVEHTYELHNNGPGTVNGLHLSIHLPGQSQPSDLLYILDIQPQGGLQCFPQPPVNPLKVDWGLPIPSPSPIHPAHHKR
Sequence (P08514 891-1039 limits assumed): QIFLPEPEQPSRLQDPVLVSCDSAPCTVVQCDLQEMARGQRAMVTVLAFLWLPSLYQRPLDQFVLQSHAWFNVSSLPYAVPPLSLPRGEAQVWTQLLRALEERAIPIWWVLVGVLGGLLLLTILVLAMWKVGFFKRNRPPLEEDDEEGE

Structure (SMILES)	IC50
COC(=O)[C@H](CNC(=O)CC1CC(c2ccc(C(=N)N)cc2)=NO1)NC(=O)Nc1ccccc1 (stereo partly drawn) [(S)-3-{2-[3-(4-Carbamimidoyl-phenyl)-4,5-dihydro-isoxazol-5-yl]-acetylamino}-2-(3-phenyl-ureido)-propionic acid methyl ester; TFA]	69 nM
CC(C)COC(=O)N[C@@H](CNC(=O)CC1CC(c2ccc(C(=N)N)cc2)=NO1)C(=O)O (stereo partly drawn) [(S)-3-{2-[3-(4-Carbamimidoyl-phenyl)-4,5-dihydro-isoxazol-5-yl]-acetylamino}-2-isobutoxycarbonylamino-propionic acid; TFA]	47 nM
CC(C)OC(=O)N[C@@H](CNC(=O)CC1CC(c2ccc(C(=N)N)cc2)=NO1)C(=O)O (stereo partly drawn) [(S)-3-{2-[3-(4-Carbamimidoyl-phenyl)-4,5-dihydro-isoxazol-5-yl]-acetylamino}-2-isopropoxycarbonylamino-propionic acid; TFA]	130 nM
N=C(N)c1ccc(C2=NOC(CC(=O)N[C@@H](CC(=O)O)C(=O)N3CCSCC3)C2)cc1 (stereo partly drawn) [(S)-3-{2-[3-(4-Carbamimidoyl-phenyl)-4,5-dihydro-isoxazol-5-yl]-acetylamino}-4-oxo-4-thiomorpholin-4-yl-butyric acid; TFA]	360 nM
N=C(N)c1ccc(C2=NOC(CC(=O)N[C@H](CC(=O)O)Cc3ccccc3)C2)cc1 (stereo partly drawn) [(S)-3-{2-[3-(4-Carbamimidoyl-phenyl)-4,5-dihydro-isoxazol-5-yl]-acetylamino}-4-phenyl-butyric acid; hydrochloride]	1400 nM
N=C(N)c1ccc(C2=NO[C@@H](CC(=O)N[C@@H](CC(=O)O)c3cccnc3)C2)cc1 [(S)-3-{2-[(R)-3-(4-Carbamimidoyl-phenyl)-4,5-dihydro-isoxazol-5-yl]-acetylamino}-3-pyridin-3-yl-propionic acid; TFA]	170 nM
N=C(N)c1ccc(C2=NOC(CC(=O)N[C@@H](CC(=O)O)C(=O)N3CCC4CCC(CC4)C3)C2)cc1 (stereo partly drawn) [(S)-4-(3-Aza-bicyclo[4.2.2]dec-3-yl)-3-{2-[3-(4-carbamimidoyl-phenyl)-4,5-dihydro-isoxazol-5-yl]-acetylamino}-4-oxo-butyric acid; TFA]	210 nM
N=C(N)c1ccc(C2=NOC(CC(=O)N[C@@H](CC(=O)O)C(=O)NCC34CC5CC(CC(C5)C3)C4)C2)cc1 (stereo partly drawn) [(S)-N-Adamantan-1-ylmethyl-3-{2-[3-(4-carbamimidoyl-phenyl)-4,5-dihydro-isoxazol-5-yl]-acetylamino}-succinamic acid; TFA]	95 nM
N=C(N)c1ccc(C2=NOC(CC(=O)N[C@@H](CC(=O)O)C(=O)NC3C4CC5CC(C4)CC3C5)C2)cc1 (stereo partly drawn) [(S)-N-Adamantan-2-yl-3-{2-[3-(4-carbamimidoyl-phenyl)-4,5-dihydro-isoxazol-5-yl]-acetylamino}-succinamic acid; TFA]	140 nM
CCCCN(Cc1ccccc1)C(=O)[C@H](CC(=O)O)NC(=O)CC1CC(c2ccc(C(=N)N)cc2)=NO1 (stereo partly drawn) [(S)-N-Benzyl-N-butyl-3-{2-[3-(4-carbamimidoyl-phenyl)-4,5-dihydro-isoxazol-5-yl]-acetylamino}-succinamic acid; TFA]	180 nM

Results, then the compound that gave them:

IC50	Structure (SMILES)
31 nM	N=C(N)c1ccc(C2=NOC(CC(=O)NC[C@H](NC(=O)OCCC(F)(F)F)C(=O)O)C2)cc1 (stereo partly drawn) [(S)-3-{2-[3-(4-Carbamimidoyl-phenyl)-4,5-dihydro-isoxazol-5-yl]-acetylamino}-2-(3,3,3-trifluoro-propoxycarbonylamino)-propionic acid; TFA]
31 nM	N=C(N)c1ccc(C2=NOC(CC(=O)NC[C@H](NC(=O)CCc3ccccc3)C(=O)O)C2)cc1 (stereo partly drawn) [(S)-3-{2-[3-(4-Carbamimidoyl-phenyl)-4,5-dihydro-isoxazol-5-yl]-acetylamino}-2-(3-phenyl-propionylamino)-propionic acid; TFA]
49 nM	CCc1ccc(C(=O)N[C@@H](CNC(=O)CC2CC(c3ccc(C(=N)N)cc3)=NO2)C(=O)O)cc1 (stereo partly drawn) [(S)-3-{2-[3-(4-Carbamimidoyl-phenyl)-4,5-dihydro-isoxazol-5-yl]-acetylamino}-2-(4-ethyl-benzoylamino)-propionic acid; TFA]
61 nM	N=C(N)c1ccc(C2=NOC(CC(=O)NC[C@H](NC(=O)c3ccc4ccccc4c3)C(=O)O)C2)cc1 (stereo partly drawn) [(S)-3-{2-[3-(4-Carbamimidoyl-phenyl)-4,5-dihydro-isoxazol-5-yl]-acetylamino}-2-[(naphthalene-2-carbonyl)-amino]-propionic acid; TFA]
41 nM	CCCCCCOC(=O)N[C@@H](CNC(=O)CC1CC(c2ccc(C(=N)N)cc2)=NO1)C(=O)O (stereo partly drawn) [(S)-3-{2-[3-(4-Carbamimidoyl-phenyl)-4,5-dihydro-isoxazol-5-yl]-acetylamino}-2-hexyloxycarbonylamino-propionic acid; TFA]
65 nM	COC(=O)N[C@@H](CNC(=O)CC1CC(c2ccc(C(=N)N)cc2)=NO1)C(=O)O (stereo partly drawn) [(S)-3-{2-[3-(4-Carbamimidoyl-phenyl)-4,5-dihydro-isoxazol-5-yl]-acetylamino}-2-methoxycarbonylamino-propionic acid; TFA]
55 nM	N=C(N)c1ccc(C2=NOC(CC(=O)NC[C@H](NC(=O)OCCc3ccccc3)C(=O)O)C2)cc1 (stereo partly drawn) [(S)-3-{2-[3-(4-Carbamimidoyl-phenyl)-4,5-dihydro-isoxazol-5-yl]-acetylamino}-2-phenethyloxycarbonylamino-propionic acid; TFA]
68 nM	N=C(N)c1ccc(C2=NOC(CC(=O)N[C@@H](CC(=O)O)C(=O)NCCc3ccccc3)C2)cc1 (stereo partly drawn) [(S)-3-{2-[3-(4-Carbamimidoyl-phenyl)-4,5-dihydro-isoxazol-5-yl]-acetylamino}-N-phenethyl-succinamic acid; TFA]
